Data on 1 compound can be found in patent US20250122202A1, “EGFR INHIBITOR, PREPARATION METHOD THEREFOR AND USE THEREOF” (SHANDONG NEW TIME PHARMACEUTICAL CO., LTD., priority 2021, published 2025).

Data set [1] addresses EGFR-Del19/T790M/C797S kinase (Homo sapiens, UniProt P00533, C797S/T790M, form not given). Description: In-vitro enzyme experiment 2 (HTRF kinase assay), EGFR Del19 T790M C797S. Format: biochemical. As to conditions: read-out: enzyme inhibition IC50 (nM) EGFR-Del19/T790M/C797S. As to the method: The specific experiment was as follows: • 1. […] Test method of activity of compound • a) a compound diluent was transferred to each well of an assay plate (784075, Greiner) using Echo 550; • b) the assay plate was sealed and centrifuged at 1,000 g for 1 min; • c) 2×EGFR (D770-N771 ins NPG T790M) was prepared in a 1× kinase buffer; • d) 5 μl of the 2×EGFR (D770-N771 ins NPG T790M) was added to a 384-well assay plate (784075, Greiner); • e) the assay plate was centrifuged at 1,000 g for 30 s and incubated at room temperature for 10 min; • f) 2× TK-substrate-biotin (2 μM) and ATP were added to the 1× kinase buffer and mixed; • g) the reaction was started after adding 5 μl of the TK-substrate-biotin (2 μM) and ATP mixture; • h) the assay plate was centrifuged at 1,000 g for 30 s; and the assay plate was sealed and incubated at room temperature for 40 min; • i) 4× Sa-XL 665 was prepared in an HTRF detection buffer; • j) 5 μl of the Sa-XL 665 and 5 μl of a TK-antibody-cryptate were added to each well of the assay plate; • k) the assay plate was centrifuged at 1,000 g for 30 s and incubated at room temperature for 1 h; and • l) fluorescence signals at 615 nm (cryptate) and 665 nm (XL665) were read on an Envision 2104 reader. • 3. Data analysis • 3.1 Calculation of ratio (665/615 nm) of each well • 3.2 Calculation of inhibition rate
[formula] • 3.3 Calculation of IC50 value of compound and drawing dose-effect curve of compound • IC50 values were calculated using GraphPad 6.0 by applying a non-linear regression curve (dose-effect relationship-variable slope) of the logarithm of the compound concentration versus the inhibition rate.
The preparation of the kinase buffer, the test method of the activity of the compound, and the data analysis referred to the relevant definitions in example 117, wherein step c) of the test method of the activity of the compound was replaced by preparing 2×EGFR Del19 T790M C797S in the 1× kinase buffer.

A further data set has as its system PC-9 EGFR-Del19. Description: Cell proliferation inhibition experiment (CCK-8), PC-9. Type of data set: cell-based. As to conditions: Homo sapiens, 72 h. The text has this: (§1) Inhibition rate %=[(A0−AS)/(A0−AC)]×100%.
The subject of another data set is H1975 EGFR-L858R/T790M. Briefly: Cell proliferation inhibition experiment (CCK-8), H1975. Type of data set: cell-based. Particulars: Homo sapiens, NCI-H1975, 72 h.
Text: as §1

Data set [2] relates to KC-1474 cell subcutaneous transplantation tumor. Description: In-vivo drug efficacy study, KC-1474 cell subcutaneous transplantation tumor in NPG mice. Particulars: for tumor volume inhibition rate (TGITV) / tumor weight inhibition rate (TGITW): 39 days, end of experiment. The procedure:
Female SPF NPG mice weighed 19-22 g were used. The experimental animals were provided by Beijing Vitalstar Biotechnology Co., Ltd. with the experimental animal production license number SCXK (Jing) 2019-0002 and the experimental animal quality certification number of No.110341211100087928.
KC-1474 cells used in the experiment were cultured in a 5% CO2 37° C. incubator with an RPMI1640 medium supplemented with 10% FBS and […] of puromycin. Before the cells were continuously cultured for ten passages, the KC-1474 cells were adjusted to a concentration of 1×10^8/mL, and mixed with Matrigel at a volume ratio of 1:1, and the mixture was inoculated subcutaneously into the right lateral thorax of the NPG mice at 0.1 mL/mouse with 5×10^6 cells per mouse.
When the mean tumor volume of the mice reached about 100-130 mm^3, according to the tumor volume and weight, all the mice were randomly divided into […] group respectively: a model group (V), an example 60 compound oral administration group (po), an example 60 compound intravenous injection low-dose group (L), and an example 60 compound intravenous injection medium-dose group (M). The mice in all the groups were administrated once daily. The administration started on the day of the grouping and continued for 39 days. The mice in the model group were intravenously injected with the same volume of a solvent. The solvent was prepared by adding 2 g of polyethylene glycol-15 hydroxystearate (HS15) into 4 mL of dimethyl sulfoxide (DMSO), then adding 40 mL of purified water, and filtering an obtained mixture by using a 0.22-μm sterilizing filter. At the end of the experiment or the humane endpoint, the animals were euthanized using sodium pentobarbital for anesthesia.
Tumor volume was measured once during the grouping, once per week after the grouping using a vernier caliper, and before the euthanasia. A method for measuring the tumor volume was measuring the long diameter and the short diameter of a tumor using the vernier caliper.
The tumor volume was calculated by the formula: tumor volume=0.5×long diameter×short diameter^2.
(Ti: mean tumor volume of mice in the treatment groups on day i of the administration and T0: mean tumor volume of the mice in the treatment group on day 0 of the administration; and Vi: mean tumor volume of the mice in the model group on day i of the administration and V0: mean tumor volume of the mice in the model group on day 0 of the administration).
At the end of the experiment, the tumor tissue was stripped after the animals were euthanized, the tumor weight was weighed, and the tumor weight inhibition rate was calculated according to the following formula:
TGITW(%)=(Wmodel group−Wtreatment group)/Wmodel group×100%, wherein the W means tumor weight.
Original data was analyzed and the results were expressed as mean±standard deviation (mean±SD). At the same time, the tumor volume and the tumor weight were subjected to statistical analysis. AP<0.05 was considered to be a significant difference.

The next data set deals with A549 EGFR-WT. Briefly: Cell proliferation inhibition experiment (CCK-8), A549. As to conditions: Homo sapiens, A549, 72 h, read-out: cell proliferation inhibition IC50 (μM) A549, 72 h, CCK-8.

Molecules are shown by their SMILES. Like-named read-outs stand apart in the source and are kept apart here.

Chain of EGFR-Del19/T790M/C797S kinase (P00533 25-1210 T790M/C797S limits assumed, form open): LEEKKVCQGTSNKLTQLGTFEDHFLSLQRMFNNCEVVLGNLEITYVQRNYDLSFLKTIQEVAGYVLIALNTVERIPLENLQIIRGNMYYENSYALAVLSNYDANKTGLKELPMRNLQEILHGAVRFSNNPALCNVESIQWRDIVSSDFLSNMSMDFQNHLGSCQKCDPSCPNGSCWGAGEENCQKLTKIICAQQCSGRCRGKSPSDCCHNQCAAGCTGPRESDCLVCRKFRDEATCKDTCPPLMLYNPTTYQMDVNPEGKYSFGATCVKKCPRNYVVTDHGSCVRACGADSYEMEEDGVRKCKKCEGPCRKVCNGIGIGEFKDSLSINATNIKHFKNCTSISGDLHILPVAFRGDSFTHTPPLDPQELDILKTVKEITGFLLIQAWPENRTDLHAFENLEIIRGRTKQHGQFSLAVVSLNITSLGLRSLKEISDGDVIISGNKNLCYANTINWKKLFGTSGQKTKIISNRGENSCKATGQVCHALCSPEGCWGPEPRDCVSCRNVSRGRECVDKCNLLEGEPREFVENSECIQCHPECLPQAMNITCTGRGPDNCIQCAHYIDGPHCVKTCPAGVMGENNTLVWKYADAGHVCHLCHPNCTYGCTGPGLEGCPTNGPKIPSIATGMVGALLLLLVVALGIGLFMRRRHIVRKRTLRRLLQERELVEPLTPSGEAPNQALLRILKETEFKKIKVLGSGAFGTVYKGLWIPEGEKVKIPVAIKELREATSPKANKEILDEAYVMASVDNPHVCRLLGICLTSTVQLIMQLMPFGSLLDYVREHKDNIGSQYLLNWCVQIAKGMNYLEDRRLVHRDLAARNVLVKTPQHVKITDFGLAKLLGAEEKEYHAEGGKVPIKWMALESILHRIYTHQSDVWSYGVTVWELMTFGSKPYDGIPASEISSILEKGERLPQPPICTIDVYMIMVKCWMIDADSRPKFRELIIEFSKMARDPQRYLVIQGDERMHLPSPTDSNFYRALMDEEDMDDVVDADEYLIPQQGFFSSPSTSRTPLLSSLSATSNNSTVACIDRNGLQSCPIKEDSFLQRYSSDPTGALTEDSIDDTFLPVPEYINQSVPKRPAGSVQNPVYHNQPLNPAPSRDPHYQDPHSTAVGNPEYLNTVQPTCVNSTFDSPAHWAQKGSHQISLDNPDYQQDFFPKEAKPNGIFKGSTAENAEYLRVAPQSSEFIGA

Regarding `CN1CCN(c2ccc(Nc3nc(N[C@H]4CC[C@@H](CO)CC4)c4c(C(=O)c5ccc(F)cc5)c[nH]c4n3)cc2)CC1` [Example 60], the IC50 was below 10 nM in data set [1]; below 0.1 µM in the data set on PC-9 EGFR-Del19; 0.1 to 1 µM in the data set with H1975 EGFR-L858R/T790M; 0.1 to 1 µM with A549 EGFR-WT; 0.23 µM in the data set on A549 EGFR-WT (Table 5 numeric). The “tumor volume inhibition rate (TGITV)” value in data set [2] (L group, 3 mg/kg qd iv) was 31%; in data set [2] (M group, 10 mg/kg qd iv) it was 57%; in data set [2] (po group, 20 mg/kg qd po), 28%. Besides, the “tumor weight inhibition rate (TGITW)” value stood at 22% in data set [2] (L group, 3 mg/kg qd iv); 61% in data set [2] (M group, 10 mg/kg qd iv); 21% in data set [2] (po group, 20 mg/kg qd po). The “animal condition during the administration and observation” value in data set [2] (all groups, qd for 39 days) is listed as “no diarrhea, vomiting, or rash”.
